Test results taken from ChEMBL document CHEMBL3808381, “Structural Requirements and Docking Analysis of Amidine-Based Sphingosine Kinase 1 Inhibitors Containing Oxadiazoles” (ACS Med Chem Lett, 2016).

These molecules were tested against Sphingosine kinase 1 (Homo sapiens, UniProt Q9NYA1) (assay: Inhibition of human SphK1 expressed in baculovirus infected in Sf9 cells using D-erythro-sphingosine as substrate and [gamma-32P]ATP by scintillation counting method).
Sphingosine kinase 1, sequence (Q9NYA1 whole entry): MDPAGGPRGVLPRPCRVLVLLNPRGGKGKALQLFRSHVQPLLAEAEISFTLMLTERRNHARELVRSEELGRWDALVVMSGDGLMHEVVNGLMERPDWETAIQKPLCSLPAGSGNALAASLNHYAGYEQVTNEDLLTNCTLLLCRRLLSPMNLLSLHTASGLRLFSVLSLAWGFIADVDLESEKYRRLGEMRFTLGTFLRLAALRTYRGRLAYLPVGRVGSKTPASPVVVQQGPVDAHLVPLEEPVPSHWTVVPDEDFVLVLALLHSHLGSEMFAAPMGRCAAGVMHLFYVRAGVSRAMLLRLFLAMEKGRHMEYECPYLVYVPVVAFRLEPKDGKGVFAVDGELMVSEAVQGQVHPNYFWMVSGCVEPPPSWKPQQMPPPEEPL

Row | Ki [µM] | Compound
1 | 2.5 | CCCCCCCCCCCCCc1ccc(-c2noc(C3(C(=N)N)CC3)n2)cc1
2 | 0.04 | CCCCCCCCCCCCc1cccc(-c2noc(C3(C(=N)N)CC3)n2)c1
3 | 0.07 | CCCCCCCCCCCc1cccc(-c2noc(C3(C(=N)N)CC3)n2)c1
4 | 0.32 | CCCCCCCCCCCCc1ccc(-c2noc(C3(C(=N)N)CC3)n2)cc1

Each molecule was assayed against T1, Sphingosine kinase 2 (Homo sapiens, UniProt Q9NRA0) (assay: Inhibition of human SphK2 expressed in baculovirus infected in Sf9 cells using D-erythro-sphingosine as substrate and [gamma-32P]ATP by scintillation counting method).
T1 sequence (Q9NRA0 whole entry): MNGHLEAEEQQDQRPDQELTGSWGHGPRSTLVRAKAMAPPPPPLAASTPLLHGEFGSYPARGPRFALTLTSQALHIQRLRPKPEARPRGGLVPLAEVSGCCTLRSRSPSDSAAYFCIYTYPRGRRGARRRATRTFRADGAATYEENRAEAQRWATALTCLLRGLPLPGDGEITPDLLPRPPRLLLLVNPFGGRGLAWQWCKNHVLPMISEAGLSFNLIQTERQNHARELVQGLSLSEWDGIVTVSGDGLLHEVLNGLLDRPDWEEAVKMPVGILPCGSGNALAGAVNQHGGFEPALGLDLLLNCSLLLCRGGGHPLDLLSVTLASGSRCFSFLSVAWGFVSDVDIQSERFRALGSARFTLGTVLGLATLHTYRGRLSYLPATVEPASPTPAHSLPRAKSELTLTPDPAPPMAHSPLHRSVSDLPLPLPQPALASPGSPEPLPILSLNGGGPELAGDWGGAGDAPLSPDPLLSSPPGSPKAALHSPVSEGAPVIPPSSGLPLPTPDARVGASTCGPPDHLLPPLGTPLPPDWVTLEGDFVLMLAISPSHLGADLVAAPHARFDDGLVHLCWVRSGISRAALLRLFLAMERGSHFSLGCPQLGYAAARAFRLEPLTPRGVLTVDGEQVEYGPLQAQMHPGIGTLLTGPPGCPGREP

Row | Ki [µM] | Compound
5 | 11 | CCCCCCCCCCCCCc1ccc(-c2noc(C3(C(=N)N)CC3)n2)cc1
6 | 14.1 | CCCCCCCCCCCCc1cccc(-c2noc(C3(C(=N)N)CC3)n2)c1
7 | 9.9 | CCCCCCCCCCCc1cccc(-c2noc(C3(C(=N)N)CC3)n2)c1
8 | 6 | CCCCCCCCCCCCc1ccc(-c2noc(C3(C(=N)N)CC3)n2)cc1
